Data taken from patent US20240158810A1, “COMPOSITIONS AND METHODS FOR AMELIORATING ANTERODORSAL THALAMUS HYPEREXCITABILITY” (The Broad Institute, Inc., priority 2021, published 2024).

Assays:
[1] = test system: AD neurons expressing inhibitory DREADDs hM4Di-mCherry; assay: C21-induced inhibition of hM4Di-expressing AD neuronal firing, ex vivo slice recording; format: cell-based, mouse; conditions: hM4Di-mCherry expressed in AD, 50 pA step current injection
[2] = test system: AD neurons of PTCHD1 KD mice; assay: AD neuronal excitability rescue ex vivo in PTCHD1 KD mice (chemogenetic normalization); parameters: species or system mouse; conditions: PTCHD1 KD mice with hM4Di in AD; low dose of C21 (0.6 mg kg^-1 IP), 1 hr before slice preparation
Description: (§1) The inventors hypothesized that the increased excitability of AD neurons in KD mice may prevent synaptic strengthening during CFC training, which is necessary for efficient encoding. Specifically, in control mice the excitability of AD neurons would increase during training, which leads to strengthening of the AD→RSC circuit, but in KD mice due to the increased excitability of AD neurons before training there will not be the important training-induced increase in excitability and corresponding synaptic strengthening. By recording from AD neurons before and after CFC training in control and KD groups, the inventors obtained experimental evidence to support this idea (FIG. 14G). Without intending to be bound by theory, these findings support a correlation between neuronal hyperexcitability and impairments in long-term potentiation (Speca et al., 2014: Gruter et al., 2015). The inventors next developed a dose-dependent chemogenetic approach to normalize the excitability of AD neurons in KD mice (FIG. 6D).
(§2) Chemogenetic and optogenetic experiments. For chemogenetic (i.e., hM4Di or hM3Dq) neuronal activity manipulation experiments, we used the second-generation agonist known as compound 21 (C21). This agonist was purchased in a water-soluble dihydrochloride form (Hello Bio). […]

[3] = test system: AD→RSC circuit; assay: AMPA/NMDA ratio of the AD→RSC circuit after CFC training in PTCHD1 KD mice; format: in vivo, mouse; conditions: PTCHD1 KD mice with hM4Di in AD, low dose of C21 (0.6 mg kg^-1 IP)
Description: as §1, §2

[4] = test system: RSC cFos ensembles; assay: cFos activation in RSC during CFC training in PTCHD1 KD mice; format: in vivo, mouse; conditions: PTCHD1 KD mice with hM4Di in AD, low dose of C21 (0.6 mg kg^-1 IP)
[5] = test system: PTCHD1 KD mice; assay: Contextual fear conditioning long-term memory recall test in PTCHD1 KD mice; format: in vivo, mouse; conditions: PTCHD1 KD mice with hM4Di in AD; low dose of C21 (0.6 mg kg^-1 IP) before CFC training
Description: as §1
Chemogenetic and optogenetic experiments. For chemogenetic (i.e., hM4Di or hM3Dq) neuronal activity manipulation experiments, we used the second-generation agonist known as compound 21 (C21). […]
Contextual fear conditioning. […] Since optogenetic manipulations (i.e., optic fibers) interfered with automated motion detection, freezing behavior was manually quantified for all experiments.

Cl.Cl.c1ccc2c(c1)N=C(N1CCNCC1)c1ccccc1N2 [C21]
AD neuronal firing [1]: reversibly decreased AD neuronal firing
excitability of AD neurons [2]: returned to physiological levels
training-induced strengthening of the AD→RSC circuit (AMPA/NMDA ratio) [3]: rescued
training-induced CFOS ensemble size in RSC [4]: rescued
LTM recall (CFC) [5]: rescued
